The target of the experiment is T1, human ferroportin (Homo sapiens, UniProt Q9NP59).
T1 construct: luciferase reporter (probably NanoLuc: read with the Nano-Glo Luciferase Assay System); expressed in transfected cells; host or cells: CHO cells, stably transfected, doxycycline-inducible expression
T1 sequence (Q9NP59 1-571): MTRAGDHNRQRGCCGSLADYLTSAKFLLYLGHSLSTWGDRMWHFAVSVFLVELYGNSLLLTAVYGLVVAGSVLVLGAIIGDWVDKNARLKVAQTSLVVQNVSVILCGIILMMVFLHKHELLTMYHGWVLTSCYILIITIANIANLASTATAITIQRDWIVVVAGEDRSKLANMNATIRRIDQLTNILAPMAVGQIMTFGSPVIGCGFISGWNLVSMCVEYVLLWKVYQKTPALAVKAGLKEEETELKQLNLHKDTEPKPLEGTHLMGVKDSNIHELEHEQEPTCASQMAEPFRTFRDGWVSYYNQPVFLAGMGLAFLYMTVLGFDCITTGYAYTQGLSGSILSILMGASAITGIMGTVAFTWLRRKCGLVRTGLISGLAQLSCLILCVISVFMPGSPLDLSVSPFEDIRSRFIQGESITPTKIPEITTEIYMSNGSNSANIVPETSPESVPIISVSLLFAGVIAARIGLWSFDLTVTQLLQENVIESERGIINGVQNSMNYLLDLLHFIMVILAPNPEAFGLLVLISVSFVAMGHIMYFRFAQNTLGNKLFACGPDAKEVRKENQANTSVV
The experiment is described as follows: In-vitro ferroportin internalization assay (luciferase reporter). It is filed as cell-based. Particulars: average pEC50; stably-transfected CHO cell line expressing human ferroportin tagged to a luciferase reporter; 6 h incubation with test compounds. As to the method:
The protocol for this assay is generally as described in WO2018/128828, incorporated herein by reference in its entirety. Functional internalization of ferroportin protein was measured using a stably-transfected CHO cell line expressing the human ferroportin tagged to a luciferase reporter. Cells were plated for 24 h in the presence of ferric ammonium citrate (FAC). Ferroportin protein expression was induced with doxycycline for 24 h. The next day, the compounds were added. Test compounds were dissolved in DMSO. Cells were incubated with the test compounds for 6 h, and subsequently luciferase activity was measured using the Nano-Glo Luciferase Assay System and Glomax (Promega, Madison, Wis.).
The average pEC50 was determined for the test compounds.
Background: Reporter assays use an easily measured gene product as a stand-in for the process of interest.
What is called pEC50 is the EC50 on a negative log10 scale, so that one unit is a factor of ten. Low readings indicate a high EC50, high ones a low EC50. In the case of `Fc1cccnc1CNc1ncnc2sc(CCNCCc3nc4ccccc4[nH]3)nc12` [Compound 1, 2-(2-{[2-(1H-1,3-benzodiazol-2-yl)ethyl]amino}ethyl)-N-[(3-fluoropyridin-2-yl)methyl]-[1,3]thiazolo[5,4-d]pyrimidin-7-amine], the pEC50 was found to be 7.8.

`Fc1cccnc1CNc1ncnc2oc(CCNCCc3nc4ccccc4[nH]3)nc12` [Compound 2, 2-(2-{[2-(1H-1,3-benzodiazol-2-yl)ethyl]amino}ethyl)-N-[(3-fluoropyridin-2-yl)methyl]-[1,3]oxazolo[5,4-d]pyrimidin-7-amine]: the negative logarithm of the EC50 (pEC50) was found to be 7.3.

In the case of `Fc1ccc2[nH]c(CCNCCc3nc4c(NCc5ncccc5F)ncnc4s3)nc2c1` [Compound 3, 2-(2-{[2-(5-fluoro-1H-1,3-benzodiazol-2-yl)ethyl]amino}ethyl)-N-[(3-fluoropyridin-2-yl)methyl]-[1,3]thiazolo[5,4-d]pyrimidin-7-amine], the negative logarithm of the EC50 (pEC50) was 7.1.

For `c1ccc(CNc2ncnc3sc(CCNCCc4nc5ccccc5[nH]4)nc23)cc1` [Compound 4, 2-(2-{[2-(1H-1,3-benzodiazol-2-yl)ethyl]amino}ethyl)-N-benzyl-[1,3]thiazolo[5,4-d]pyrimidin-7-amine], the pEC50 stood at 6.6.

For `c1ccc(CNc2ncnc3sc(CCNCCc4nc5ccccc5[nH]4)nc23)nc1` [Compound 5, 2-(2-{[2-(1H-1,3-benzodiazol-2-yl)ethyl]amino}ethyl)-N-[(pyridin-2-yl)methyl]-[1,3]thiazolo[5,4-d]pyrimidin-7-amine], the pEC50 worked out at 6.8.

`Clc1cccnc1CNc1ncnc2sc(CCNCCc3nc4ccccc4[nH]3)nc12` [Compound 6, 2-(2-{[2-(1H-1,3-benzodiazol-2-yl)ethyl]amino}ethyl)-N-[(3-chloropyridin-2-yl)methyl]-[1,3]thiazolo[5,4-d]pyrimidin-7-amine] gave a pEC50 of 7.8.

Turning to `Fc1cccnc1CNc1ncnc2sc(CCNCc3nc4ccccc4[nH]3)nc12` [Compound 7, 2-(2-{[(1H-1,3-benzodiazol-2-yl)methyl]amino}ethyl)-N-[(3-fluoropyridin-2-yl)methyl]-[1,3]thiazolo[5,4-d]pyrimidin-7-amine], the pEC50 worked out at 6.7.

Regarding `Fc1ccc(CNc2ncnc3sc(CCNCCc4nc5ccccc5[nH]4)nc23)nc1` [Compound 8, 2-(2-{[2-(1H-1,3-benzodiazol-2-yl)ethyl]amino}ethyl)-N-[(5-fluoropyridin-2-yl)methyl]-[1,3]thiazolo[5,4-d]pyrimidin-7-amine], the pEC50 is given as 6.4.

As for `c1cnc(CNc2ncnc3sc(CCNCCc4nc5ccccc5[nH]4)nc23)nc1` [Compound 9, 2-(2-{[2-(1H-1,3-benzodiazol-2-yl)ethyl]amino}ethyl)-N-[(pyrimidin-2-yl)methyl]-[1,3]thiazolo[5,4-d]pyrimidin-7-amine], the pEC50 was determined as 6.3.

In the case of `CN(CCc1nc2ccccc2[nH]1)CCc1nc2c(NCc3ncccc3F)ncnc2s1` [Compound 10, 2-(2-{[2-(1H-1,3-benzodiazol-2-yl)ethyl](methyl)amino}ethyl)-N-[(3-fluoropyridin-2-yl)methyl]-[1,3]thiazolo[5,4-d]pyrimidin-7-amine], the negative-log EC50 (pEC50) was determined as 5.7.

Consider `COc1cccnc1CNc1ncnc2sc(CCNCCc3nc4ccccc4[nH]3)nc12` [Compound 11, 2-(2-{[2-(1H-1,3-benzodiazol-2-yl)ethyl]amino}ethyl)-N-[(3-methoxypyridin-2-yl)methyl]-[1,3]thiazolo[5,4-d]pyrimidin-7-amine], for which the negative logarithm of the EC50 (pEC50) came to 6.7.

With `Cc1cccnc1CNc1ncnc2sc(CCNCCc3nc4ccccc4[nH]3)nc12` [Compound 12, 2-(2-{[2-(1H-1,3-benzodiazol-2-yl)ethyl]amino}ethyl)-N-[(3-methylpyridin-2-yl)methyl]-[1,3]thiazolo[5,4-d]pyrimidin-7-amine], the negative logarithm of the EC50 (pEC50) was found to be 7.3.

The molecule `Fc1cccnc1CNc1nccc2oc(CCNCCc3nc4ccccc4[nH]3)nc12` [Compound 13, 2-(2-{[2-(1H-1,3-benzodiazol-2-yl)ethyl]amino}ethyl)-N-[(3-fluoropyridin-2-yl)methyl]-[1,3]oxazolo[4,5-c]pyridin-4-amine] returned a pEC50 of 8.

`Fc1cccnc1CNc1nccc2sc(CCNCCc3nc4ccccc4[nH]3)nc12` [Compound 14, 2-(2-{[2-(1H-1,3-benzodiazol-2-yl)ethyl]amino}ethyl)-N-[(3-fluoropyridin-2-yl)methyl]-[1,3]thiazolo[4,5-c]pyridin-4-amine] came in with a pEC50 of 7.8.

As for `Fc1cccnc1CNc1ncnc2sc(CCNCCc3nc4c(F)cccc4[nH]3)nc12` [Compound 15, 2-(2-{[2-(4-fluoro-1H-1,3-benzodiazol-2-yl)ethyl]amino}ethyl)-N-[(3-fluoropyridin-2-yl)methyl]-[1,3]thiazolo[5,4-d]pyrimidin-7-amine], the pEC50 was 6.8.

`Fc1cccnc1CNc1ncnc2sc(CCNCCc3nc4ccccc4o3)nc12` [Compound 16, 2-(2-{[2-(1,3-benzoxazol-2-yl)ethyl]amino}ethyl)-N-[(3-fluoropyridin-2-yl)methyl]-[1,3]thiazolo[5,4-d]pyrimidin-7-amine] displayed a negative logarithm of the EC50 (pEC50) of 5.6.

`[N-]=[N+]=Nc1cccnc1CNc1ncnc2sc(CCNCCc3nc4ccccc4[nH]3)nc12` [Compound 17, N-[(3-azidopyridin-2-yl)methyl]-2-(2-{[2-(1H-1,3-benzodiazol-2-yl)ethyl]amino}ethyl)-[1,3]thiazolo[5,4-d]pyrimidin-7-amine] came in with a negative-log EC50 (pEC50) of 7.7.

In turn, `COc1nc(NCc2ncccc2F)c2nc(CCNCCc3nc4ccccc4[nH]3)sc2n1` [Compound 18, 2-(2-{[2-(1H-1,3-benzodiazol-2-yl)ethyl]amino}ethyl)-N-[(3-fluoropyridin-2-yl)methyl]-5-methoxy-[1,3]thiazolo[5,4-d]pyrimidin-7-amine] gave a pEC50 of 5.7.

As to `COc1cc2sc(CCNCCc3nc4ccccc4[nH]3)nc2c(NCc2ncccc2F)n1` [Compound 19, 2-(2-{[2-(1H-1,3-benzodiazol-2-yl)ethyl]amino}ethyl)-N-[(3-fluoropyridin-2-yl)methyl]-6-methoxy-[1,3]thiazolo[4,5-c]pyridin-4-amine], the pEC50 was 6.2.

`Fc1cccnc1CNc1ncnc2sc(C3CN(CCc4nc5ccccc5[nH]4)C3)nc12` [Compound 20, 2-{1-[2-(1H-1,3-benzodiazol-2-yl)ethyl]azetidin-3-yl}-N-[(3-fluoropyridin-2-yl)methyl]-[1,3]thiazolo[5,4-d]pyrimidin-7-amine] yielded a negative-log EC50 (pEC50) of 7.5.

`Nc1nc(NCc2ncccc2F)c2nc(CCNCCc3nc4ccccc4[nH]3)sc2n1` [Compound 21, 2-(2-{[2-(1H-1,3-benzodiazol-2-yl)ethyl]amino}ethyl)-N7-[(3-fluoropyridin-2-yl)methyl]-[1,3]thiazolo[5,4-d]pyrimidine-5,7-diamine] had a pEC50 of 6.2.

Take `C#CCCC1(CCC(=O)Nc2ccc3[nH]c(CCNCCc4nc5c(NCc6ncccc6F)ncnc5s4)nc3c2)N=N1` [Compound 22, 3-[3-(but-3-yn-1-yl)-3H-diazirin-3-yl]-N-[2-(2-{[2-(7-{[(3-fluoropyridin-2-yl)methyl]amino}-[1,3]thiazolo[5,4-d]pyrimidin-2-yl)ethyl]amino}ethyl)-1H-1,3-benzodiazol-5-yl]propanamide]: the pEC50 was found to be 6.5.

`Oc1nc(NCc2ncccc2F)c2nc(CCNCCc3nc4ccccc4[nH]3)sc2n1` [Compound 23, 2-(2-{[2-(1H-1,3-benzodiazol-2-yl)ethyl]amino}ethyl)-7-{[(3-fluoropyridin-2-yl)methyl]amino}-[1,3]thiazolo[5,4-d]pyrimidin-5-ol] displayed a pEC50 of 8.8.

On to `CC(CNCCc1nc2ccccc2[nH]1)c1nc2c(NCc3ncccc3F)ncnc2s1` (centres unmarked) [Compound 24, 2-(1-{[2-(1H-1,3-benzodiazol-2-yl)ethyl]amino}propan-2-yl)-N-[(3-fluoropyridin-2-yl)methyl]-[1,3]thiazolo[5,4-d]pyrimidin-7-amine], for which the pEC50 was 5.8.

For `Fc1cccnc1CNc1ncnc2sc(C3(F)CN(CCc4nc5ccccc5[nH]4)C3)nc12` [Compound 25, 2-{1-[2-(1H-1,3-benzodiazol-2-yl)ethyl]-3-fluoroazetidin-3-yl}-N-[(3-fluoropyridin-2-yl)methyl]-[1,3]thiazolo[5,4-d]pyrimidin-7-amine], the negative-log EC50 (pEC50) was found to be 6.3.

For `C[C@H](Cc1nc2c(NCc3ncccc3F)ncnc2s1)NCCc1nc2ccccc2[nH]1` [Compound 26, 2-[(2R)-2-{[2-(1H-1,3-benzodiazol-2-yl)ethyl]amino}propyl]-N-[(3-fluoropyridin-2-yl)methyl]-[1,3]thiazolo[5,4-d]pyrimidin-7-amine], the pEC50 is recorded as 6.5.

These data come from patent US11286243B2 (GLOBAL BLOOD THERAPEUTICS, INC., priority 2018, dated 2022).
